Experimental data from patent US20250026743A1, “HETEROARYL-LINKED ANALOGS AS MGLU5 NEGATIVE ALLOSTERIC MODULATORS AND METHODS OF MAKING AND USING THE SAME” (Vanderbilt University, priority 2021, published 2025).
Read-outs that look alike come from different tables or passages of the source.

Target: T1, hmGlu5 (Homo sapiens, UniProt P41594)
T1 construct: expressed in transfected cells; host or cells: HEK 293A
Experiment: mGlu5 Ca2+ flux assay in HEK 293A cells (negative allosteric modulation of glutamate EC80 response)
Format: cell-based
Settings: for remaining activity at 30 µM: HEK293-A, read-out: hmGlu5 NAM Emin (%); for IC50: HEK 293A cells, Ca2+ flux, glutamate EC80, >10,000 = decrease without plateau, read-out: hmGlu5 NAM IC50
Protocol: HEK 293A cells stably expressing either rat or human mGlu5 were plated in black-walled, clear-bottomed, poly-D-lysine coated 384-well plates in 20 μL of assay medium (DMEM containing 10% dialyzed FBS, 20 mM HEPES, 100 units/mL penicillin/streptomycin plus 250 ng/mL Fungizone, and 1 mM sodium pyruvate) at a density of 20K cells/well. The cells were grown overnight at 37° C. in the presence of 5% CO2. The next day, medium was removed and the cells incubated with 20 μL of 2.3 μM Fluo-4, AM prepared as a 2.3 mM stock in DMSO and mixed in a 1:1 ratio with 10% (w/v) pluronic acid F-127 and diluted in assay buffer (Hank's balanced salt solution, 20 mM HEPES, and 2.5 mM probenecid) for 45 minutes at 37° C. Dye was removed, 20 μL of assay buffer was added, and the plate was incubated for 5 minutes at room temperature.
Ca^2+ flux was measured using the Functional Drug Screening System (FDSS7000, Hamamatsu, Japan). After establishment of a fluorescence baseline for about 3 seconds, the compounds of the present invention were added to the cells, and the response in cells was measured. 2.3 minutes later an EC20 concentration of the mGlu5 receptor agonist glutamate was added to the cells, and the response of the cells was measured for 1.9 minutes; an EC80 concentration of agonist was added and readings taken for an additional 1.7 minutes. All test compounds were dissolved and diluted to a concentration of 10 mM in 100% DMSO. Compounds were then serially diluted 1:3 in DMSO into 10 point concentration response curves, transferred to daughter plates, and further diluted into assay buffer to a 2× stock. Calcium fluorescence measures were recorded as fold over basal fluorescence; raw data was then normalized to the maximal response to glutamate. Antagonism of the agonist response of the mGlu5 receptor in the present invention was observed as a decrease in response to nearly maximal concentrations of glutamate in the presence of compound compared to the response to glutamate in the absence of compound.
The raw data file containing all time points was used as the data source in the analysis template. This was saved by the FDSS as a tab-delimited text file. Data were normalized using a static ratio function (F/F0) for each measurement of the total 360 values per well divided by each well's initial value. Data were then reduced to peak amplitudes (Max−Initial Min) using a time range that starts approximately 3 seconds prior to the glutamate EC20/EC80 addition and continues for approximately 90-120 seconds. This is sufficient time to capture the peak amplitude of the cellular calcium response. Individual amplitudes were expressed as % EMax by multiplying each amplitude by 100 and then dividing the product by the mean of the amplitudes derived from the glutamate ECMax-treated wells. IC50 values for test compounds were generated by fitting the normalized values versus the log of the test compound concentration (in mol/L) using a 4 parameter logistic equation where none of the parameters were fixed. Each of the three values collected at each concentration of test compound were weighted evenly.
For NAMs with a CRC that plateaus above 10% Glu Max, the IC50 values are reported, the compound is designated a “partial NAM” and the % Glu Max is reported. […] Compounds without measurable activity are designated as “>30,000 nM” since the top concentration of compound tested in the assay is 30 μM. […]

T1 sequence (P41594 21-1212): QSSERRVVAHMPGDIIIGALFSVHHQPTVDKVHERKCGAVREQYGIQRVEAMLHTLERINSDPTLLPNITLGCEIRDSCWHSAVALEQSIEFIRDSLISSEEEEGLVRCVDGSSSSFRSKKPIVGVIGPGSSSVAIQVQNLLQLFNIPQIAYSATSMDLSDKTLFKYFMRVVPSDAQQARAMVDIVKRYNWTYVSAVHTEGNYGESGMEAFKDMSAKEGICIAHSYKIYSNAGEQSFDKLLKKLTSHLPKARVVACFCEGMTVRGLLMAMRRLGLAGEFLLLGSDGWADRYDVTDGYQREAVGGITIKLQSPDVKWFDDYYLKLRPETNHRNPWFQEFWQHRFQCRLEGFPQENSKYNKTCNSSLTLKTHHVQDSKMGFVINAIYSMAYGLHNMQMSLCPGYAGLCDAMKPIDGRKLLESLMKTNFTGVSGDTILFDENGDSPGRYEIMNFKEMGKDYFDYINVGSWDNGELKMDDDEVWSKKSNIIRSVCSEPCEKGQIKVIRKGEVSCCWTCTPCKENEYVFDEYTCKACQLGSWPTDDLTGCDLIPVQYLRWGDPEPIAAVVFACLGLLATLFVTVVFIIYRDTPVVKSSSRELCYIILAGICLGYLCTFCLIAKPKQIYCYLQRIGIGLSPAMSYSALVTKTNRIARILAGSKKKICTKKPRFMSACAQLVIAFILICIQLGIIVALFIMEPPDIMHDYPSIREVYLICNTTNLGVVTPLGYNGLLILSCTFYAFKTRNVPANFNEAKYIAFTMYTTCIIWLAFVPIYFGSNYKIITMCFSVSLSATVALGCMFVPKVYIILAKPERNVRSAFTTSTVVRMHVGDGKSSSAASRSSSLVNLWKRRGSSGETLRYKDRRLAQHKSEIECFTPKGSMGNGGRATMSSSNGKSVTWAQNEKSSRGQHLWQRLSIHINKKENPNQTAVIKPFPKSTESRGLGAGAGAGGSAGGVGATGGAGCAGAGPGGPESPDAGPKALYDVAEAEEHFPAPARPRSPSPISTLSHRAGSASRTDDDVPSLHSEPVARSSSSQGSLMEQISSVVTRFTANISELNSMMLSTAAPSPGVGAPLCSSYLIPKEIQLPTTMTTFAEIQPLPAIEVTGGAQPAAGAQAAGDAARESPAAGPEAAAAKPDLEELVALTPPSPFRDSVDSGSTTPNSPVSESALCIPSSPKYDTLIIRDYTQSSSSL

Row | Structure (SMILES) | remaining activity at 30 µM (% Glu max at 30 μM) | IC50 | remaining activity at 30 µM
1 | Cc1ccncc1-c1cc(-c2noc(-c3cnccn3)n2)nc(C)c1F [Compound 94, 3-(5′-fluoro-4,6′-dimethyl-[3,4′-bipyridin]-2′-yl)-5-(pyrazin-2-yl)-1,2,4-oxadiazole] | 37% | > 10000 nM | –
2 | Cc1nc(-c2noc(-c3ccc(F)cc3F)n2)cc(-c2cncc(F)c2)c1F [Compound 49, 3-(5,5′-difluoro-6′-methyl-[3,4′-bipyridin]-2′-yl)-5-(2,4-difluorophenyl)-1,2,4-oxadiazole] | 3% | 624 nM | –
3 | Cc1cc(O[C@@H]2CCOC2)cc(-c2noc(-c3ccc(F)cn3)n2)n1 [Compound 112, (R)-5-(5-fluoropyridin-2-yl)-3-(6-methyl-4-((tetrahydrofuran-3-yl)oxy)pyridin-2-yl)-1,2,4-oxadiazole] | 21% | > 10000 nM | –
4 | Cc1ccncc1-c1cc(-c2nnc(-c3cccc(F)c3)o2)nc(C)c1F [Compound 40, 2-(5′-fluoro-4,6′-dimethyl-[3,4′-bipyridin]-2′-yl)-5-(3-fluorophenyl)-1,3,4-oxadiazole] | 2% | 705 nM | –
5 | Cc1nc(-c2n[nH]c(-c3ccc(F)cn3)n2)cc(-c2cncc(F)c2)c1F [Compound 96, 3′,5-difluoro-6′-(5-(5-fluoropyridin-2-yl)-1H-1,2,4-triazol-3-yl)-2′-methyl-3,4′-bipyridine] | 2% | 64 nM | –
6 | Fc1ccc(-c2nc(-c3cc(-c4cncc(F)c4)cc(C(F)F)n3)no2)nc1 [Compound 61, 3-(6′-(difluoromethyl)-5-fluoro-[3,4′-bipyridin]-2′-yl)-5-(5-fluoropyridin-2-yl)-1,2,4-oxadiazole] | 6% | 125 nM | –
7 | Fc1ccc(-c2nc(-c3cc(-c4cncc(F)c4)cc(C4CCC4)n3)no2)nc1 [Compound 39, 3-(6′-cyclobutyl-5-fluoro-[3,4′-bipyridin]-2′-yl)-5-(5-fluoropyridin-2-yl)-1,2,4-oxadiazole] | 58% | 1910 nM | –
8 | Cc1nc(-c2noc(C3CCOCC3)n2)cc(-c2cncc(F)c2)c1F [Compound 37, 3-(5,5′-difluoro-6′-methyl-[3,4′-bipyridin]-2′-yl)-5-(tetrahydro-2H-pyran-4-yl)-1,2,4-oxadiazole] | 54% | > 10000 nM | –
9 | Cc1ccncc1-c1cc(-c2noc(-c3cccnn3)n2)nc(C)c1F [Compound 92, 3-(5′-fluoro-4,6′-dimethyl-[3,4′-bipyridin]-2′-yl)-5-(pyridazin-3-yl)-1,2,4-oxadiazole] | 74% | > 10000 nM | –
10 | Cc1nc(-c2noc(-c3ccc(F)cn3)n2)cc(-c2ccc(C3CC3)nc2)c1F [Compound 31, 3-(6-cyclopropyl-5′-fluoro-6′-methyl-[3,4′-bipyridin]-2′-yl)-5-(5-fluoropyridin-2-yl)-1,2,4-oxadiazole] | 20% | 3090 nM | –
11 | Fc1ccc(-c2nnc(-c3cc(-c4cncc(F)c4)cc(C(F)F)n3)o2)nc1 [Compound 84, 2-(6′-(difluoromethyl)-5-fluoro-[3,4′-bipyridin]-2′-yl)-5-(5-fluoropyridin-2-yl)-1,3,4-oxadiazole] | 1% | 359 nM | –
12 | Cc1nc(-c2noc(-c3cccnc3)n2)cc(-c2cncc(F)c2)c1F [Compound 50, 3-(5,5′-difluoro-6′-methyl-[3,4′-bipyridin]-2′-yl)-5-(pyridin-3-yl)-1,2,4-oxadiazole] | 34% | 1560 nM | –
13 | Cc1nc(-c2nnc(-c3cccnc3)o2)cc(-c2cncc(F)c2)c1F [Compound 80, 2-(5,5′-difluoro-6′-methyl-[3,4′-bipyridin]-2′-yl)-5-(pyridin-3-yl)-1,3,4-oxadiazole] | – | 3340 nM | 58%
14 | Cc1nc(-c2n[nH]c(-c3ccc(F)cc3)n2)cc(-c2cncc(F)c2)c1F [Compound 99, 3′,5-difluoro-6′-(5-(4-fluorophenyl)-1H-1,2,4-triazol-3-yl)-2′-methyl-3,4′-bipyridine] | 2% | 47 nM | –
15 | Cc1nc(-c2noc(-c3ccc(F)cn3)n2)cc(-c2cncc(C#N)c2)c1F [Compound 68, 3′-fluoro-6′-(5-(5-fluoropyridin-2-yl)-1,2,4-oxadiazol-3-yl)-2′-methyl-[3,4′-bipyridine]-5-carbonitrile] | 3% | 757 nM | –
16 | Cc1ccncc1-c1cc(-c2nnc(-c3ccc(F)cn3)o2)nc(C)c1F [Compound 42, 2-(5′-fluoro-4,6′-dimethyl-[3,4′-bipyridin]-2′-yl)-5-(5-fluoropyridin-2-yl)-1,3,4-oxadiazole] | 2% | 375 nM | –
17 | Cc1nc(-c2noc(-c3ccc(F)cn3)n2)cc(-c2ccc(C(F)(F)F)nc2)c1F [Compound 29, 3-(5′-fluoro-6′-methyl-6-(trifluoromethyl)-[3,4′-bipyridin]-2′-yl)-5-(5-fluoropyridin-2-yl)-1,2,4-oxadiazole] | 37% | 1720 nM | –
18 | Cc1nc(-c2nc(-c3ccc(F)cn3)no2)cc(-c2cnn(C(F)F)c2)c1F [Compound 9, 5-(4-(1-(difluoromethyl)-1H-pyrazol-4-yl)-5-fluoro-6-methylpyridin-2-yl)-3-(5-fluoropyridin-2-yl)-1,2,4-oxadiazole] | 2% | 328 nM | –
19 | Cc1ccncc1-c1cc(-c2noc(-c3cscn3)n2)nc(C)c1F [Compound 27, 3-(5′-fluoro-4,6′-dimethyl-[3,4′-bipyridin]-2′-yl)-5-(thiazol-4-yl)-1,2,4-oxadiazole] | 2% | 308 nM | –
20 | Cc1ccncc1-c1cc(-c2noc(-c3ncccc3F)n2)ncc1F [Compound 2, 3-(5′-fluoro-4-methyl-[3,4′-bipyridin]-2′-yl)-5-(3-fluoropyridin-2-yl)-1,2,4-oxadiazole] | 25% | 2630 nM | –
21 | Cc1nc(-c2noc(-c3ccccc3F)n2)cc(-c2cncc(F)c2)c1F [Compound 47, 3-(5,5′-difluoro-6′-methyl-[3,4′-bipyridin]-2′-yl)-5-(2-fluorophenyl)-1,2,4-oxadiazole] | 34% | 5500 nM | –
22 | Cc1nc(-c2nnc(-c3ccc(F)cn3)o2)cc(-c2cnsc2)c1F [Compound 110, 2-(5-fluoro-4-(isothiazol-4-yl)-6-methylpyridin-2-yl)-5-(5-fluoropyridin-2-yl)-1,3,4-oxadiazole] | 2% | 185 nM | –
23 | Cc1csc(-c2noc(-c3cc(-c4cncc(F)c4)c(F)c(C)n3)n2)n1 [Compound 104, 5-(5,5′-difluoro-6′-methyl-[3,4′-bipyridin]-2′-yl)-3-(4-methylthiazol-2-yl)-1,2,4-oxadiazole] | 1% | 122 nM | –
24 | Cc1nc(-c2noc(-c3ccc(F)cn3)n2)cc(-c2cc(Cl)cc(C#N)c2)c1F [Compound 70, 3-chloro-5-(3-fluoro-6-(5-(5-fluoropyridin-2-yl)-1,2,4-oxadiazol-3-yl)-2-methylpyridin-4-yl)benzonitrile] | 3% | 206 nM | –
25 | Cc1csc(-c2nc(-c3cc(-c4cncc(F)c4)c(F)c(C)n3)no2)n1 [Compound 16, 3-(5,5′-difluoro-6′-methyl-[3,4′-bipyridin]-2′-yl)-5-(4-methylthiazol-2-yl)-1,2,4-oxadiazole] | 9% | 613 nM | –
26 | COc1ccncc1-c1cc(-c2nnc(-c3ccc(F)cn3)o2)nc(C)c1F [Compound 73, 2-(5′-fluoro-4-methoxy-6′-methyl-[3,4′-bipyridin]-2′-yl)-5-(5-fluoropyridin-2-yl)-1,3,4-oxadiazole] | 2% | 298 nM | –
